# Experiment: in vitro
# Conditions: human, hela cells, % viability
row,Structure (SMILES),"viability at 28.5 h, 10 µM"
1,O=C(Nn1cnnc1)c1ccccc1CCc1ccccc1 [CBK268578],87.7%
2,COc1cc(C)c(NC(=O)C(=S)NCc2ccco2)cc1C [CBK268582],103%
3,COc1ccc(S(=O)(=O)N(CC(=O)Nc2ccc3c(c2)OCCO3)c2ccc(F)cc2)cc1 [CBK268584],114%
4,Oc1c(C(Nc2cccnc2)c2ccccc2OCc2ccccc2)ccc2cccnc12 (stereo not drawn) [CBK268587],71.5%
5,O=C(NCc1ccc2c(c1)OCO2)c1ccccc1CCc1ccccc1 [CBK268591],107%
6,CS(=O)(=O)Nc1ccc(C(=O)Nc2ccc(S(=O)(=O)N3CCCC3)cc2)cc1 [CBK268592],116%
7,COc1ccc([N+](=O)[O-])cc1NC(=O)c1cc(Cl)c(OC)c(Cl)c1 [CBK268594],82.6%
8,CN(Cc1nc(-c2ccncc2)no1)S(=O)(=O)c1ccc(Br)cc1 [CBK268598],94.6%
9,Cc1cccc(C(=O)Nc2cccc(OCC(=O)O)c2)c1 [CBK268599],114%
10,Cc1cc(OCc2nnc(SCC(=O)Nc3ccc(I)cc3)n2C)ccc1Cl [CBK268600],113%
11,Cc1cc(C)cc(OCc2nnc(SCC(=O)Nc3c(F)cc(F)cc3Br)n2C)c1 [CBK268604],83.6%
12,O=C(O)Cc1ccc(NC(=O)c2cccc(NC(=O)c3ccco3)c2)cc1 [CBK268606],96.7%
13,CCn1c(SCc2nc(-c3cccs3)no2)nnc1-c1c[nH]c2ccccc12 [CBK268607],104%
14,CCn1c(SCC(=O)Nc2c(Cl)cc(Cl)cc2Cl)nnc1-c1ccccc1F [CBK268609],102%
15,Cc1ccc(SC(C)C(=O)Nc2cc(Cl)ccc2O)cc1 (stereo not drawn) [CBK268610],87.9%
16,O=C(O)c1ccc(C(=O)Nc2cccc(NC(=O)C3CCCO3)c2)cc1 (stereo not drawn) [CBK268613],105%
17,Cc1cc(Cl)cc(Br)c1OCCNCCN1CCOCC1 [CBK268615G],111%
18,CN(CC(=O)O/N=C(\N)c1ccccn1)S(=O)(=O)c1ccc(Br)cc1 [CBK268617],96.9%
19,CN(CC(=O)Nc1nnc[nH]1)S(=O)(=O)c1ccc(Br)cc1 [CBK268618],91.1%
20,O=C(c1ccccc1CCc1ccccc1)N1CCN(Cc2ccc3c(c2)OCO3)CC1 [CBK268623],120%
21,Cc1ccc(SC(C)C(=O)NCCCN2CCOCC2)cc1 (stereo not drawn) [CBK268624],88.5%

row,Structure (SMILES),"viability at 28.5 h, 10 µM"
1,COc1ccccc1C(=O)Nc1ccccc1C(=O)Nc1ccc(C(=O)O)cc1 [CBK268625],94.7%
2,CC(C)(C)c1ccc(C(=O)Nc2ccccc2C(=O)Nc2ccc(C(=O)O)cc2)cc1 [CBK268626],89.1%
3,Cc1ccccc1OC(C)C(=O)NCCCN1CCOCC1 (stereo not drawn) [CBK268628],112%
4,COc1ccc(NC(=O)c2ccccc2CCc2ccccc2)c([N+](=O)[O-])c1 [CBK268632],97%
5,CC(C)(C)C1CCc2c(sc(NC(=S)NC(=O)COc3ccccc3)c2C(N)=O)C1 (stereo not drawn) [CBK268634],107%
6,O=C(Nc1cccc(O)c1)c1ccc2c(c1)C(=O)N(Cc1ccco1)C2=O [CBK268640],95.6%
7,COCCN1C(=O)c2ccc(C(=O)c3ccc4c(c3)C(=O)N(CCOC)C4=O)cc2C1=O [CBK268641],113%
8,O=C(Nc1ccccc1-c1nc2ccccc2s1)c1sc2cc(Cl)ccc2c1Cl [CBK268642],88.5%
9,Cc1cccnc1NC(=O)C(C)Oc1ccccc1 (stereo not drawn) [CBK268643],90.2%
10,COc1ccc(-c2noc(CSc3nnc(-c4c[nH]c5ccccc45)n3C)n2)cc1OC [CBK268644],88.8%
11,Cc1ccc(S(=O)(=O)N(CC(=O)Nc2ccccc2F)c2cc(Cl)ccc2Cl)cc1 [CBK268647],111%
12,CN(CC(=O)Nc1ccccc1C(N)=O)S(=O)(=O)c1ccc(Br)cc1 [CBK268648],98.7%
13,O=C(NC(=S)Nc1cc(-c2nc3ccccc3[nH]2)ccc1Cl)c1ccccc1[N+](=O)[O-] [CBK268649],93.7%
14,CN1CCN(C(=O)CNC(=O)CNS(=O)(=O)c2ccccc2)CC1 [CBK268651],90.9%
15,CC(C)(C)N1C(=O)c2ccc(C(=O)NNC(=O)C(C#N)C(=O)c3ccc4c(c3)C(=O)N(C(C)(C)C)C4=O)cc2C1=O (stereo not drawn) [CBK268652],90.3%
16,Cc1ccc(SCCN2CCN(Cc3ccccc3)CC2)cc1 [CBK268653G],99.1%
17,COc1ccccc1NC(=O)CNC(=O)c1ccc([N+](=O)[O-])cc1 [CBK268657],91.9%
18,CCOC(=O)N1CCN(C(=O)c2ccc(CS(=O)(=O)c3ccc(C)cc3)cc2)CC1 [CBK268659],88.3%
19,CCOC(=O)c1ccc(NC(=O)C(C)Oc2ccccc2C)cc1 (stereo not drawn) [CBK268660],102%
20,COc1ccc(OC)c(NC(=O)Cn2cc(C(C)=O)c3ccccc32)c1 [CBK268661],92.5%
21,Cc1[nH]c2ccccc2c1C(=O)CSc1nnc(Cc2cccs2)n1C [CBK268663],105%

row,Structure (SMILES),"viability at 28.5 h, 10 µM"
1,CN(C)S(=O)(=O)N(CC(=O)Nc1ccccc1C(F)(F)F)c1ccccc1 [CBK268665],102%
2,CCc1cccc(C)c1NC(=O)CN(c1cccc(Cl)c1Cl)S(=O)(=O)c1ccc(C)cc1 [CBK268666],84.7%
3,Cc1ccc(O)c(NC(=O)COc2ccc(Cl)cc2)c1 [CBK268670],108%
4,NC(=O)CSc1nnc(-c2cccnc2)n1Cc1ccccc1 [CBK268672],99.2%
5,O=C(Nc1ccc2oc(-c3cccnc3)nc2c1)c1cc([N+](=O)[O-])ccc1N1CCOCC1 [CBK268674],95%
6,Cc1ccc(NC(=O)CSc2nnc3c4c5c(sc4nc(-n4nc(C)cc4C)n23)COC(C)(C)C5)cc1 [CBK268675],93.2%
7,Cc1cccc(N(CC(=O)Nc2cccnc2)S(=O)(=O)c2ccc(Cl)cc2)c1 [CBK268676],85.3%
8,Cc1ccc(C)c2c1c1nc3ccccc3nc1n2Cc1nnc(-c2ccccc2)o1 [CBK268677],104%
9,CCc1nnc(SCC(=O)N2c3ccccc3Sc3ccccc32)[nH]1 [CBK268687],110%
10,CCn1c(Cc2ccccc2)nnc1SCC(=O)Nc1cc(Cl)ccc1O [CBK268689],104%
11,COc1ccc(C(=O)NCCCSc2nc(C(C)(C)C)cc(C(F)(F)F)n2)cc1 [CBK268690],99.7%
12,CSc1ncc(Cl)c(C(=O)Nc2nnc(SC/C=C/c3ccccc3)s2)n1 [CBK268691],93.5%
13,Cc1cc(C)c(NC(=O)CSc2nc(C)c(Cc3ccccc3Cl)c(O)n2)c([N+](=O)[O-])c1 [CBK268693],90.4%
14,CCN(CC(=O)O)S(=O)(=O)c1cc(C)ccc1OC [CBK268694],98.7%
15,CC(C)C(NS(=O)(=O)c1ccc(I)cc1)C(=O)O (stereo not drawn) [CBK268703],106%
16,COC(=O)CC1C(=O)NCCN1C(=S)NC(=O)c1ccc(-c2ccccc2)cc1 (stereo not drawn) [CBK268711],105%
17,O=C(c1nc(SCc2ccccc2)ncc1Cl)N1CCN(c2cccc(Cl)c2)CC1 [CBK268712],113%
18,O=C1CC(N2CCN(c3ccc(S(=O)(=O)N4CCOCC4)cc3)CC2)C(=O)N1Cc1ccccc1 (stereo not drawn) [CBK268713],107%
19,COC(=O)c1ccc(N2C(=O)CC(N3CCC(n4c(=O)[nH]c5ccccc54)CC3)C2=O)cc1 (stereo not drawn) [CBK268714],94.6%
20,O=C(CCS(=O)(=O)c1nc(-c2ccccc2)cc(C(F)(F)F)n1)Nc1ccc(Cl)cc1Cl [CBK268717],84.9%
21,CCOC(=O)c1ccc(N2C(=O)CC(N3CCCc4ccccc43)C2=O)cc1 (stereo not drawn) [CBK268720],109%

row,Structure (SMILES),"viability at 28.5 h, 10 µM"
1,CCOC(=O)c1ccc(N2C(=O)CC(N3CCN(c4ccc(S(C)(=O)=O)cc4)CC3)C2=O)cc1 (stereo not drawn) [CBK268721],103%
2,Cc1ccc(OCC(=O)Nc2ccccc2N2CCN(S(C)(=O)=O)CC2)cc1 [CBK268722],84%
3,C=CCn1c(SCC(=O)Nc2ccnc3ccccc23)nnc1-c1cccnc1 [CBK268723],88.6%
4,Cc1ccc(C(C)C)c(OCC(=O)Nc2cc(-c3nc4ccccc4[nH]3)ccc2C)c1 [CBK268724],80.7%
5,COc1ccc(N2CCN(CCNC(=O)Nc3ccc(Cl)cc3)CC2)cc1 [CBK268725],94.9%
6,O=C(NC(=S)Nc1ccc2c(c1)Cc1ccccc1-2)c1cc([N+](=O)[O-])ccc1N1CCOCC1 [CBK268726],104%
7,CCOc1ccccc1-c1nnc(SCC(=O)NC2CCCCC2)o1 [CBK268728],106%
8,CCn1c(SCC(=O)Nc2ccc([N+](=O)[O-])cc2O)nnc1-c1ccccc1 [CBK268730],87.2%
9,COC(=O)c1ccccc1OC(=O)COc1ccc(Cl)cc1Br [CBK268733],83.7%
10,O=C(O)CCSc1nnc(-c2cccnc2)n1-c1ccccc1 [CBK268734],102%
11,Cc1cc(-c2nnc(SCCC(=O)Nc3ccccc3)o2)no1 [CBK268737],104%
12,COc1cc(/C=C(/C#N)c2ccc(C(=O)O)cc2)c([N+](=O)[O-])cc1OCc1ccccc1 [CBK268738],92%
13,O=C(CN(c1ccccc1)S(=O)(=O)c1ccc(F)cc1)Nc1ccc(Cl)c(Cl)c1 [CBK268740],86.6%
14,CCOC(=O)N1CCN(CC(=O)N2c3ccccc3CCc3ccccc32)CC1 [CBK268744G],111%
15,Cc1cc2nc(/C(C#N)=C/c3ccncc3)[nH]c2cc1C [CBK268745],87.7%
16,CCOC(=O)C1=C(CSc2nccn2C)NC(=O)NC1c1ccc2c(c1)OCO2 (stereo not drawn) [CBK268746],85.5%
17,Cc1cc([N+](=O)[O-])nn1CCCC(=O)Nc1cccc(O)c1 [CBK268747],87.1%
18,O=S(=O)(NCc1ccco1)N1CCOCC1 [CBK268749],90.2%
19,COc1ccc(C)cc1S(=O)(=O)N(C)CC(=O)Nc1cccc(C(C)=O)c1 [CBK268753],102%
20,CC(=O)Nc1ccc(OC(=O)CSc2nc(C)cc(-c3ccccc3)n2)cc1 [CBK268754],94.7%

# Same assay, conditions: human, hela cells, % viability, bulk resorufin, single well
row,Structure (SMILES),"viability at 28.5 h, 10 µM"
1,Cc1cccc(N2C(=O)NC(=O)C(CCc3ccncc3)(CCc3ccncc3)C2=O)c1C [CBK268705],93.9%

# Source: article PMC12040169 (PLOS Biology, 2025)
